This note sets out measurements from patent US12378231B2, “Small molecules as monoacylglycerol lipase (MAGL) inhibitors, compositions and use thereof” (APOGEE PHARMACEUTICALS, INC., priority 2023, dated 2025).

pIC50: −log10 of the molar value. Bounds are passed on as bounds.

For one test, the target named is human recombinant FAAH (Homo sapiens (Human), UniProt O00519). The test is described as follows: In vitro inhibition of human recombinant FAAH activity (Cayman FAAH inhibitor screening kit, AMC arachidonoyl amide hydrolysis). Format: biochemical. An excerpt: In brief, FAAH hydrolyzes AMC arachidonoyl amide resulting in the release of the fluorescent product, while the inhibitor will inhibit the FAAH activity and thus reduce the fluorescent signal.
Sequence of human recombinant FAAH (O00519 whole entry): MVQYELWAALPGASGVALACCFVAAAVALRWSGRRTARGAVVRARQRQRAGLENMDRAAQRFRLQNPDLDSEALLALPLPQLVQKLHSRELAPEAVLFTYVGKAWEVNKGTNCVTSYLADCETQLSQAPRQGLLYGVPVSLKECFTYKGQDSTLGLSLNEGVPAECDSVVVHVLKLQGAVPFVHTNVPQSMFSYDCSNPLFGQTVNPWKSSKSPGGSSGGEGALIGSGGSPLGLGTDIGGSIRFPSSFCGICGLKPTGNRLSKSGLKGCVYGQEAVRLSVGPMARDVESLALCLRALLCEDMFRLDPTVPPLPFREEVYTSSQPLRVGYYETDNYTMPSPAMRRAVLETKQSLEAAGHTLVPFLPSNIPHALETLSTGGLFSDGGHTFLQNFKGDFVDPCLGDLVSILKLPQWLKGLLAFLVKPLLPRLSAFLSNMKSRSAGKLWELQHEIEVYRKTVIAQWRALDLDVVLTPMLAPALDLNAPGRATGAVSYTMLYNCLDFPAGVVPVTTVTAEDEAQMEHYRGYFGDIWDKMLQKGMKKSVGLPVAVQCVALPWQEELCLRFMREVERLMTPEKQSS

The target in the next test is human recombinant MAGL (Homo sapiens (Human), UniProt Q99685). The test is described as follows: In vitro inhibition of human recombinant MAGL activity (Cayman inhibitor screening kit, 4-nitrophenylacetate hydrolysis). Format: biochemical. As to conditions: human recombinant MAGL; read-out: Inhibition on MAGL activity (IC50). From the text: The inhibitory effect of the synthetic chemicals on activity of human recombinant MAGL was studied using commercial inhibitor screening kit (Cayman Chemical). […] The absorbance of the yellow product can be analyzed using the plate reader. […]
Sequence of human recombinant MAGL (Q99685 whole entry): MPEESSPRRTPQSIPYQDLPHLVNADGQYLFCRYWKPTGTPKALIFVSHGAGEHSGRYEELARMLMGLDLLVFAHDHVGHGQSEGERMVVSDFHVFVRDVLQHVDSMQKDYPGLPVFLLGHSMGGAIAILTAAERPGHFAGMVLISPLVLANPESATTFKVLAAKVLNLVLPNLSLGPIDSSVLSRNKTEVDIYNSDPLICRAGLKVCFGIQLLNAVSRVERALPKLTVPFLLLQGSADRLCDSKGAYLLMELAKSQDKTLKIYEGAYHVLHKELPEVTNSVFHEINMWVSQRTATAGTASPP

For `Cn1ncc2cc(C(=C3CCN(C(=O)n4nnc5ccccc54)CC3)c3ccc4c(cnn4C)c3)ccc21` [Example 122, (1H-benzo[d][1,2,3]triazol-1-yl)(4-(bis(1-methyl-1H-indazol-5-yl)methylene)piperidin-1-yl)methanone], the pIC50 at human recombinant FAAH was around 4.30; at human recombinant MAGL, 7.00 to 8.00.

On to `N#Cc1ncn(C(=O)N2CCC3(CCN(C(c4ccc5c(c4)COCO5)c4ccc5c(c4)COCO5)C3)C2)n1` (centres unmarked) [Example 85, 1-(7-(bis(4H-benzo[d][1,3]dioxin-6-yl)methyl)-2,7-diazaspiro[4.4]nonane-2-carbonyl)-1H-1,2,4-triazole-3-carbonitrile], for which the pIC50 on human recombinant FAAH is 5.00 to 6.00; on human recombinant MAGL it was 7.00 to 8.00.

Take `COc1ccc(C(c2ccc(OC)nc2)N2CCN(C(=O)n3cnc(C#N)n3)CC2)cn1` [Example 114, 1-(4-(bis(6-methoxypyridin-3-yl)methyl)piperazine-1-carbonyl)-1H-1,2,4-triazole-3-carbonitrile]: the figures for the pIC50 on human recombinant FAAH and on human recombinant MAGL were around 5.00 and 8.00 to 9.00, respectively.

With `N#Cc1cnn(C(=O)N2CCN(C(c3ccc4c(c3)COCO4)c3ccc4c(c3)COCO4)CC2)c1` [Example 24, 1-(4-(bis(4H-benzo[d][1,3]dioxin-6-yl)methyl)piperazine-1-carbonyl)-1H-pyrazole-4-carbonitrile], the pIC50 at human recombinant FAAH was 5.00 to 6.00; at human recombinant MAGL, 8.00 to 9.00.

As for `Cc1ncn(C(=O)N2CCN(C(c3ccc4c(c3)COCO4)c3ccc4c(c3)COCO4)CC2)n1` [Example 28, (4-(bis(4H-benzo[d][1,3]dioxin-6-yl)methyl)piperazin-1-yl)(3-methyl-1H-1,2,4-triazol-1-yl)methanone], the figures for the pIC50 at human recombinant FAAH and at human recombinant MAGL were below 4.70 and 7.70 to 9.00, respectively.

Take `N#Cc1ccc(C(c2ccc(C#N)cc2)N2CCN(C(=O)n3cnc(C#N)n3)CC2)cc1` [Example 102, 4,4′-((4-(3-cyano-1H-1,2,4-triazole-1-carbonyl)piperazin-1-yl)methylene)dibenzonitrile]: the pIC50 on human recombinant FAAH is 5.00 to 6.00; at human recombinant MAGL, 8.00 to 9.00.

On to `O=C(OC(C(F)(F)F)C(F)(F)F)N1CCN(Cc2ccc(C(F)(F)F)cc2N2CCCC2)CC1` [ABX-1431], for which, at human recombinant FAAH, the pIC50 was below 4.30.

Take `O=C(N1CCN(C(c2ccc3c(c2)COCO3)c2ccc3c(c2)COCO3)CC1)n1nnc2cc(F)ccc21` [Example 40, (4-(bis(4H-benzo[d][1,3]dioxin-6-yl)methyl)piperazin-1-yl)(5-fluoro-1H-benzo[d][1,2,3]triazol-1-yl)methanone]: the values for the pIC50 at human recombinant FAAH and on human recombinant MAGL were 4.70 to 6.00 and 7.00 to 8.00, respectively.

Consider `N#Cc1ccc2c(c1)nnn2C(=O)N1CCC(N(c2ccc(F)cc2)c2ccc3c(c2)OCO3)CC1` [Example 64, 1-(4-(benzo[d][1,3]dioxol-5-yl(4-fluorophenyl)amino)piperidine-1-carbonyl)-1H-benzo[d][1,2,3]triazole-5-carbonitrile], for which the pIC50 at human recombinant FAAH was 7.00 to 8.00; on human recombinant MAGL it was 8.00 to 9.00.

In the case of `COc1ccc(C(c2ccc(OC)c(OC)c2)N2CCN(C(=O)n3nnc4ccc(C#N)cc43)CC2)cc1OC` [Example 93, 1-(4-(bis(3,4-dimethoxyphenyl)methyl)piperazine-1-carbonyl)-1H-benzo[d][1,2,3]triazole-6-carbonitrile], the pIC50 at human recombinant FAAH was below 4.30; on human recombinant MAGL, 7.00 to 8.00.

As for `O=C(Oc1ccc(F)cc1)N1CCN(C(c2ccc3c(c2)COCO3)c2ccc3c(c2)COCO3)CC1` [Example 5, 4-fluorophenyl 4-(bis(4H-benzo[d][1,3]dioxin-6-yl)methyl)piperazine-1-carboxylate], the values for the pIC50 on human recombinant FAAH and on human recombinant MAGL were below 4.30 and below 7.00, respectively.

`N#Cc1ncn(C(=O)N2CCC(=C(c3ccc4c(c3)COCO4)c3ccc4c(c3)COCO4)CC2)n1` [Example 124, 1-(4-(bis(4H-benzo[d][1,3]dioxin-6-yl)methylene)piperidine-1-carbonyl)-1H-1,2,4-triazole-3-carbonitrile]: the pIC50 at human recombinant FAAH was 5.00 to 6.00; on human recombinant MAGL, 8.00 to 9.00.

Consider `COc1ccc(C(c2ccc(OC)c(OC)c2)N2CCN(C(=O)n3nnc4cc(C#N)ccc43)CC2)cc1OC` [Example 94, 1-(4-(bis(3,4-dimethoxyphenyl)methyl)piperazine-1-carbonyl)-1H-benzo[d][1,2,3]triazole-5-carbonitrile], for which the figures for the pIC50 on human recombinant FAAH and at human recombinant MAGL were below 4.30 and 7.00 to 8.00, respectively.

As to `N#Cc1ccc2c(c1)nnn2C(=O)N1CCC(N(c2cccnc2)c2ccc3c(c2)OCO3)CC1` [Example 75, 1-(4-(benzo[d][1,3]dioxol-5-yl(pyridin-3-yl)amino)piperidine-1-carbonyl)-1H-benzo[d][1,2,3]triazole-5-carbonitrile], the pIC50 was 6.00 to 7.00 at human recombinant FAAH and 8.00 to 9.00 on human recombinant MAGL.

For the compound `N#Cc1ccc2c(c1)nnn2C(=O)N1CCC(N(c2ccc3c(c2)OCO3)c2ccc3c(c2)OCO3)CC1` [Example 68, 1-(4-(bis(benzo[d][1,3]dioxol-5-yl)amino)piperidine-1-carbonyl)-1H-benzo[d][1,2,3]triazole-5-carbonitrile], the pIC50 on human recombinant FAAH was 6.00 to 7.00; at human recombinant MAGL it was 8.00 to 9.00.

As for `N#Cc1ncn(C(=O)N2CCCC(=C(c3ccc4c(c3)COCO4)c3ccc4c(c3)COCO4)CC2)n1` [Example 128, 1-(4-(bis(4H-benzo[d][1,3]dioxin-6-yl)methylene)azepane-1-carbonyl)-1H-1,2,4-triazole-3-carbonitrile], the results for the pIC50 at human recombinant FAAH and on human recombinant MAGL were 5.00 to 6.00 and 8.00 to 9.00, respectively.

On to `O=C(Oc1ccc(Oc2ccccc2)cc1)N1CCN(C(c2ccc3c(c2)COCO3)c2ccc3c(c2)COCO3)CC1` [Example 7, 4-phenoxyphenyl 4-(bis(4H-benzo[d][1,3]dioxin-6-yl)methyl)piperazine-1-carboxylate], for which the values for the pIC50 on human recombinant FAAH and at human recombinant MAGL were below 5.00 and below 7.00, respectively.

Take `N#Cc1ncn(C(=O)N2CC3CN(C(c4ccc5c(c4)COCO5)c4ccc5c(c4)COCO5)CC3C2)n1` (stereo not drawn) [Example 81, meso-1-(5-(bis(4H-benzo[d][1,3]dioxin-6-yl)methyl)octahydropyrrolo[3,4-c]pyrrole-2-carbonyl)-1H-1,2,4-triazole-3-carbonitrile]: the pIC50 on human recombinant FAAH is 5.00 to 6.00; on human recombinant MAGL it was 8.00 to 9.00.

With `COc1ccc(N(c2ccc3c(c2)OCO3)C2CCN(C(=O)n3nnc4ccc(C#N)cc43)CC2)cc1` [Example 72, 1-(4-(benzo[d][1,3]dioxol-5-yl(4-methoxyphenyl)amino)piperidine-1-carbonyl)-1H-benzo[d][1,2,3]triazole-6-carbonitrile], the values for the pIC50 on human recombinant FAAH and at human recombinant MAGL were 6.00 to 7.00 and 8.00 to 9.00, respectively.

As to `COc1cccc(C(c2cccc(OC)c2)N2CCN(C(=O)n3nnc4ccc(C#N)cc43)CC2)c1` [Example 95, 1-(4-(bis(3-methoxyphenyl)methyl)piperazine-1-carbonyl)-1H-benzo[d][1,2,3]triazole-6-carbonitrile], the figures for the pIC50 at human recombinant FAAH and on human recombinant MAGL were 4.30 to 5.00 and 8.00 to 9.00, respectively.

As to `O=C(N1CCN(C(c2ccc3c(c2)COCO3)c2ccc3c(c2)COCO3)CC1)n1nnc2cc(Br)ccc21` [Example 38, (4-(bis(4H-benzo[d][1,3]dioxin-6-yl)methyl)piperazin-1-yl)(5-bromo-1H-benzo[d][1,2,3]triazol-1-yl)methanone], the figures for the pIC50 at human recombinant FAAH and at human recombinant MAGL were below 4.30 and 7.00 to 8.00, respectively.

As to `NC(=O)c1cccc(-c2cccc(OC(=O)NC3CCCCC3)c2)c1` [URB597, reference compound], on human recombinant MAGL, the pIC50 was below 4.30.

For `N#Cc1ncn(C(=O)N2CCC3(CC2)CCN(C(c2ccc4c(c2)COCO4)c2ccc4c(c2)COCO4)CC3)n1` [Example 79, 1-(9-(bis(4H-benzo[d][1,3]dioxin-6-yl)methyl)-3,9-diazaspiro[5.5]undecane-3-carbonyl)-1H-1,2,4-triazole-3-carbonitrile], the pIC50 was around 4.30 at human recombinant FAAH and 8.00 to 9.00 on human recombinant MAGL.

With `CC(C)=NOC(=O)N1CCN(C(c2ccc3c(c2)COCO3)c2ccc3c(c2)COCO3)CC1` [Example 30, propan-2-one O-(4-(bis(4H-benzo[d][1,3]dioxin-6-yl)methyl)piperazine-1-carbonyl) oxime], the pIC50 on human recombinant FAAH was below 4.30; on human recombinant MAGL, below 5.00.

Take `O=C(N1CCN(C(c2ccc3c(c2)COCO3)c2ccc3c(c2)COCO3)CC1)n1ccnc1` [Example 9, (4-(bis(4H-benzo[d][1,3]dioxin-6-yl)methyl)piperazin-1-yl)(1H-imidazol-1-yl)methanone]: the pIC50 is below 5.00 at human recombinant FAAH and below 7.00 at human recombinant MAGL.

For the compound `N#Cc1ncn(C(=O)N2CCC3(CC2)CN(C(c2ccc4c(c2)COCO4)c2ccc4c(c2)COCO4)C3)n1` [Example 83, 1-(2-(bis(4H-benzo[d][1,3]dioxin-6-yl)methyl)-2,7-diazaspiro[3.5]nonane-7-carbonyl)-1H-1,2,4-triazole-3-carbonitrile], the pIC50 at human recombinant FAAH is 4.30 to 5.00; at human recombinant MAGL, 8.00 to 9.00.

Turning to `Cn1ncc2cc(C(=C3CCN(C(=O)n4cnc(C#N)n4)CC3)c3ccc4c(cnn4C)c3)ccc21` [Example 123, 1-(4-(bis(1-methyl-1H-indazol-5-yl)methylene)piperidine-1-carbonyl)-1H-1,2,4-triazole-3-carbonitrile], the pIC50 at human recombinant FAAH was around 5.00; on human recombinant MAGL it was 8.00 to 9.00.

`N#Cc1ccc2c(c1)nnn2C(=O)N1CCC(N(c2ccc(C(F)(F)F)cc2)c2ccc3c(c2)OCO3)CC1` [Example 70, 1-(4-(benzo[d][1,3]dioxol-5-yl(4-(trifluoromethyl)phenyl)amino)piperidine-1-carbonyl)-1H-benzo[d][1,2,3]triazole-5-carbonitrile]: the pIC50 at human recombinant FAAH was 6.00 to 7.00; at human recombinant MAGL, 8.00 to 9.00.

As for `N#Cc1ccc2c(c1)nnn2C(=O)N1CCN(C(c2ccc3c(c2)OC(F)(F)O3)c2ccc3c(c2)OC(F)(F)O3)CC1` [Example 99, 1-(4-(bis(2,2-difluorobenzo[d][1,3]dioxol-5-yl)methyl)piperazine-1-carbonyl)-1H-benzo[d][1,2,3]triazole-5-carbonitrile], the pIC50 on human recombinant FAAH was below 4.30; on human recombinant MAGL it was 8.00 to 9.00.
